# Values joined by “and” are separate entries in the source; they are usually repeats but may differ in a detail not shown here. Equal values may be shown once.
# How the values were obtained:
# [1] = system: pelvic lymph node metastases; experiment: OSPREY Cohort A: 18F-DCFPyL PET/CT detection of pelvic lymph node metastases vs histopathology; type: in vivo, men; settings: for NPV % (95% CI) / PPV % (95% CI) / Sensitivity % (95% CI) / Specificity % (95% CI): N=252
# Description: Histopathology served as the reference standard to which imaging findings were compared. FIG. 1 provides information regarding the study design and cohorts.
# Imaging findings were compared to histopathology as the truth standard.
# In OSPREY, 268 patients at high risk for pelvic lymph node metastasis who were planned for initial definitive therapy underwent PyLARIFY imaging. […] PyLARIFY and baseline conventional imaging reader interpretations were compared to pathologic staging of pelvic nodal metastases.
# [2] = system: PSMA-positive PC3 PIP tumor; experiment: Uptake in mouse xenografts; type: in vivo; settings: PSMA-positive PC3 PIP vs PSMA-negative PC3 flu tumors
compound,measurement,setting,value
"O=C(O)CC[C@H](NC(=O)N[C@@H](CCCCNC(=O)c1ccc([18F])nc1)C(=O)O)C(=O)O [18F-DCFPyL, 2-(3-{1-carboxy-5-[(6-[^18F]fluoro-pyridine-3-carbonyl)-amino]-pentyl}ureido)-pentanedioic acid]","NPV, range among three readers","[1]; Cohort A, n=252 evaluable",81.4-83.8% and 81-84%
same,"PPV, range among three readers","[1]; Cohort A, n=252 evaluable",78.1-90.5% and 78-91%
same,"Sensitivity, range among three readers","[1]; Cohort A, n=252 evaluable",30.6-41.9% and 31-42%
same,"Specificity, range among three readers","[1]; Cohort A, n=252 evaluable",96.3-98.9% and 96-99%
same,"Sensitivity, range among three readers","[1]; Cohort A, restricted to median lymph node metastases >4 mm",51.7-65.5%
same,NPV % (95% CI),[1]; Reader 1,"84 (80, 89) %"
same,PPV % (95% CI),[1]; Reader 1,"87 (70, 95) %"
same,Sensitivity % (95% CI),[1]; Reader 1,"42 (30, 54) %"
same,Specificity % (95% CI),[1]; Reader 1,"98 (95, 99) %"
same,NPV % (95% CI),[1]; Reader 2,"81 (76, 86) %"
same,PPV % (95% CI),[1]; Reader 2,"91 (70, 99) %"
same,Sensitivity % (95% CI),[1]; Reader 2,"31 (19, 42) %"
same,Specificity % (95% CI),[1]; Reader 2,"99 (96, 100) %"
same,NPV % (95% CI),[1]; Reader 3,"83 (78, 87) %"
same,PPV % (95% CI),[1]; Reader 3,"78 (64, 93) %"
same,Sensitivity % (95% CI),[1]; Reader 3,"40 (28, 53) %"
same,Specificity % (95% CI),[1]; Reader 3,"96 (94, 99) %"
same,uptake in mouse xenografts,[2],taken up only in PSMA-positive PC3 PIP tumor and not in PSMA-negative PC3 flu tumors

# Source: US20230274811A1, “METHODS OF MAKING PROSTATE CANCER TREATMENT DECISIONS” (Progenics Pharmaceuticals, Inc., priority 2020, published 2023)
